Experimental data: patent publication US5348980A, “Enantiomers derived from (S)-2-amino-2-(3,4-dichlorobenzyl)-1-propanol, their use and method of preparation” (Institute de Recherche Jouveinal, priority 1992, dated 1994)
Where a name gives a salt, the structure may show the parent alone. Read-outs that look alike come from different tables or passages of the source.

Experiments:
[1] = tested on: bronchoconstriction caused by 100 μmol/kg of histamine; experiment: Histamine-induced bronchoconstriction test (Konzett and Rossler), i.v. administration; type: in vivo, guinea pigs; conditions: for ED50: Cavia porcellus, iv
Text: Furthermore, the antihistaminic properties were studied in guinea pigs by the bronchoconstriction test performed according to the method of H. Konzett and R. Rossler (Arch. Exp. Path. Pharmak.--Naunym Schmiedeberg - 195, 71-74, 1940).
The products of the invention were studied in this test after administration in solution or in suspension via the intravenous and intraduodenal routes, and also in powder form via the intranasal route.
Irrespective of the administration route, the preparation of the animals employed in the test consists in first anesthetizing male guinea pigs weighing 350 to 400 g by intraperitoneal (i.p.) injection of a sterile and isotonic solution containing 25% (w/v.) of ethyl carbamate on the basis of 6.0 ml/kg, and in then fitting the animals with a tracheal cannula to permit measurement of the pulmonary pressure, a cannula in the right jugular vein for the intravenous (i.v.) administration of solution, and also a cannula in the left carotid artery for qualitative observation of the blood pressure.
The animals are then connected to a pump (Harvard, ref. 50-1718) in order to maintain an artificial ventilation at a frequency of 60 insufflations per minute; the intratracheal pressure is recorded by an assembly comprising a transducer, an amplifier and a recorder (Gould, respective refs.: PLOEZ, 13-4615-50 and 8188-G4400-06).
Fitted in this way, the animals are left undisturbed for 10 minutes before the beginning of the actual experiment, which is carried out in different ways according to the administration route envisaged.
In base form, the test products are dissolved in an isotonic solution (0.9% NaCl) containing 10% (v/v) of Transcutol (R). Dilutions are performed by adding isotonic solution. In salt, in particular hydrochloride, form, the solutions are prepared in the isotonic solution.
The treatment of the animals consists of a series of administrations of histamine dihydrochloride solution on the basis of 100 μmol/kg before and after treatment with the solution of test product, which is carried out according to the following time schedule:
t=-20 minutes - histamine (100 μmol/kg)
t=-10 minutes - ditto control
t=0 - injection of the test product
t=+10 minutes - histamine (100 μmol/kg)
- Calculation and expression of the results:
For each administration route and for each time of administration of histamine, the activity of the products is expressed as the percentage change in amplitude of bronchoconstriction, calculated relative to that produced by the "control" administration of histamine which precedes the administration of the test product. The % change is calculated according to the formula: [formula] in which: Bc(tx) represents the amplitude of the bronchoconstriction in mm at time x,
Bo(tx) the amplitude of the base-line respiration in mm at time x,
Bc(to) and Bo(to) the corresponding amplitudes in mm on receipt of the "control" administration of histamine which precedes that of the test product.
The inhibitory activity of the test products on histamine-induced bronchoconstriction is expressed at different times of the studies as their ED50, which is the effective dose of product, expressed in μmol/kg, capable of inhibiting 50% of the histamine-induced bronchoconstriction at the time in question.
Failing this expression, the results are expressed as a % change at the time in question and for a given concentration of the test product. Under these conditions, a positive percentage corresponds to a potentiating effect on bronchoconstriction and, conversely, a negative percentage to an inhibitory effect.
Statistical analyses of the results were carried out by the Student t test. A value of p<0.05 is considered significant.
The compounds of the invention described in Examples 1 and 2 were employed in these tests. In addition, as a comparative product for the eutomer of Example 1, the racemic (R,S) compound corresponding to it, and which is described and prepared in Example 7 of U.S. Pat. No. 4,994,617, was employed. […]

[2] = tested on: bronchoconstriction caused by ovalbumin in the sensitized animal; experiment: Inhibition of ovalbumin-induced anaphylactic bronchoconstriction in sensitized guinea pigs, oral; type: in vivo; conditions: Cavia porcellus, 1 h, intratracheal pressure after 60 minutes, read-out: ED50 inhibiting 50% of ovalbumin-induced bronchoconstriction
Procedure: The technique performed consists in previously sensitizing guinea pigs weighing 250 to 300 g by two intraperitoneal injections, separated by an interval of 24 hours, of 0.5 ml of a sterile suspension of physiological saline (0.9% NaCl) containing 20 μg of ovalbumin (Grade V; Sigma) and 100 mg of aluminum hydroxide Al(OH)3. At the same time, unsensitized control animals are treated with two injections of suspension not containing ovalbumin. The actual experiment is performed after a period needed for the sensitization of the animals, which is between 14 and 21 days. It is generally arrived at after 18 days, and consists in first administering increasing quantities of the test product in solution in water orally to groups of 5 animals, on the basis of 0.5 to 1.0 ml per animal, corresponding to doses of 1 to 10 μmol/kg of product. The animals are then anesthetized 50 minutes after this administration by an intraperitoneal injection of a solution of urethane. […] After 60 minutes, the intratracheal pressure measured in mm of Hg is determined for each animal of the test groups and those of the control group. These measurements enable the extent of the inhibition of bronchoconstriction produced by the test product to be determined. […]

SMILES	ED50 ([1]; 10 min, t = 10', read-out: ED50, inhibition of histamine-induced bronchoconstriction, t = 10') [µmol/kg]	ED50 ([1]; 20 min, t = 20', read-out: ED50, inhibition of histamine-induced bronchoconstriction, t = 20') [µmol/kg]	ED50 ([1]; 0.5 h, t = 30', read-out: ED50, inhibition of histamine-induced bronchoconstriction, t = 30') [µmol/kg]	ED50 ([1]; 40 min, t = 40', read-out: ED50, inhibition of histamine-induced bronchoconstriction, t = 40') [µmol/kg]	ED50 ([1]; 50 min, t = 50', read-out: ED50, inhibition of histamine-induced bronchoconstriction, t = 50') [µmol/kg]	ED50 ([1]; 1 h, t = 60', read-out: ED50, inhibition of histamine-induced bronchoconstriction, t = 60') [µmol/kg]	ED50, inhibition of histamine-induced bronchoconstriction, t = 10' ([1]; t = 10', 10 min) [μmol/kg]	ED50, inhibition of histamine-induced bronchoconstriction, t = 20' ([1]; t = 20', 20 min) [µmol/kg]	ED50, inhibition of histamine-induced bronchoconstriction, t = 30' ([1]; t = 30', 30 min) [µmol/kg]	ED50, inhibition of histamine-induced bronchoconstriction, t = 40' ([1]; t = 40', 40 min) [µmol/kg]	ED50, inhibition of histamine-induced bronchoconstriction, t = 50' ([1]; t = 50', 50 min) [µmol/kg]	ED50, inhibition of histamine-induced bronchoconstriction, t = 60' ([1]; t = 60', 60 min) [µmol/kg]	ED50 [2] [µmol/kg]
C=CCN(C)[C@](C)(CO)Cc1ccc(Cl)c(Cl)c1 [Example 2, base, (S)-(+)-N-allyl-2-methylamino-2-(3,4-dichlorobenzyl)-1-propanol]	1.27	0.93	0.74	0.96	1.01	0.76	–	–	–	–	–	–	–
C=CCN(C)[C@](C)(CO)Cc1ccc(Cl)c(Cl)c1 [Example 2, hydrochloride, (S)-(+)-N-allyl-2-methylamino-2-(3,4-dichlorobenzyl)-1-propanol]	–	–	–	–	–	–	1.68	0.70	0.58	0.57	0.51	0.53	1.84
